In patent US11981677B2, “Further substituted triazolo quinoxaline derivatives” (Grünenthal GmbH, priority 2018, dated 2024):

Target: T1, Glucocorticoid Receptor (Homo sapiens, UniProt P04150)
T1 construct: expressed in transfected cells
T1 sequence (P04150 524-758 limits assumed): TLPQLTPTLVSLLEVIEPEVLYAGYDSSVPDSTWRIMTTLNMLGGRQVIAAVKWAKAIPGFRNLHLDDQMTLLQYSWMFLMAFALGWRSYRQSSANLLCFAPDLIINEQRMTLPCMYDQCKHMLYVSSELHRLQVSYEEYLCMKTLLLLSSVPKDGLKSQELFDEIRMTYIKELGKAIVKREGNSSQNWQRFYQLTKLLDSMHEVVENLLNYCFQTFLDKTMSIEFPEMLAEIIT
Assay: Agonistic mode of action on the glucocorticoid receptor (CHO-Gal4/GR luciferase reporter cell line)
Type: cell-based
Conditions: CHO-Gal4/GR luciferase reporter cells; observed in the agonistic assay or the antagonistic assay (mode not given); read-out: IC50 or EC50 range
Procedure, shortened: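 CHO cells stably expressing GAL4 DBD–GR ligand-binding domain fusion with GAL4-UAS firefly luciferase reporter, seeded 24 h, then treated in Opti-MEM with 8 half-log concentrations from 10 μM to 0.003 μM (0.5% DMSO), quadruplicate. Luminescence read on FLIPR after lysis with Triton/luciferin; EC50 calculated.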

COc1c(-c2cc(F)cc3c2ccn3CCO)cc(F)c2c1-n1c(C)nnc1C(C)(C)N2 [Example 55, 2-[6-Fluoro-4-(6-fluoro-9-methoxy-1,4,4-trimethyl-5H-[1,2,4]triazolo[4,3-a]quinoxalin-8-yl)-1H-indol-1-yl]-EtOH] and CNc1c(-c2cc(F)cc3c2ccn3CCO)cc(F)c2c1-n1c(C)nnc1C(C)(C)N2 [Example 480, 2-[6-Fluoro-4-(6-fluoro-1,4,4-trimethyl-9-methylamino-5H-[1,2,4]triazolo[4,3-a]quinoxalin-8-yl)-1H-indol-1-yl]-EtOH] fall in the same range of IC50 or EC50 (antagonist or agonist mode, not stated per compound): 100 to 1000 nM for the first, 100 to 1000 nM for the second.

Cc1c[nH]c2c(-c3cc(F)c4c(c3C3CC3)-n3c(C)nnc3C(C)(C)N4)cccc12 [Example 472, 9-Cyclopropyl-6-fluoro-1,4,4-trimethyl-8-(3-methyl-1H-indol-7-yl)-5H-[1,2,4]triazolo[4,3-a]quinoxaline] and CCc1nnc2n1-c1c(C)c(-c3cccc4c(C)c[nH]c34)cc(F)c1NC2(C)C [Example 355, 1-Ethyl-6-fluoro-4,4,9-trimethyl-8-(3-methyl-1H-indol-7-yl)-5H-[1,2,4]triazolo[4,3-a]quinoxaline] fall in the same range of IC50 or EC50 (antagonist or agonist mode, not stated per compound): 100 to 1000 nM for the first, 100 to 1000 nM for the second.

Cc1c(-c2cc(F)cc3c2ccn3S(C)(=O)=O)cc(Cl)c2c1-n1c(C)nnc1C(C)(C)N2 [Example 457, 6-Chloro-8-(6-fluoro-1-methylsulfonyl-1H-indol-4-yl)-1,4,4,9-tetramethyl-5H-[1,2,4]triazolo[4,3-a]quinoxaline] and Cc1c(-c2cccc3c2ccn3S(C)(=O)=O)cc(Cl)c2c1-n1c(C)nnc1C(C)(C)N2 [Example 456, 6-Chloro-1,4,4,9-tetramethyl-8-(1-methylsulfonyl-1H-indol-4-yl)-5H-[1,2,4]triazolo[4,3-a]quinoxaline] cannot be ordered by IC50 or EC50 (antagonist or agonist mode, not stated per compound): less than 100 nM for the first, less than 100 nM for the second.

Cc1nnc2n1-c1c(c(F)c(F)c(-c3cccc4c3ccn4S(C)(=O)=O)c1C(F)(F)F)NC2(C)C [Example 500, 6,7-difluoro-1,4,4-trimethyl-8-(1-(methylsulfonyl)-1H-indol-4-yl)-9-(trifluoromethyl)-4,5-dihydro-[1,2,4]triazolo[4,3-a]quinoxaline] and Cc1nnc2n1-c1c(c(F)c(F)c(-c3cc(F)cc4c3ccn4S(C)(=O)=O)c1C(F)(F)F)NC2(C)C [Example 518, 6,7-difluoro-8-(6-fluoro-1-(methylsulfonyl)-1H-indol-4-yl)-1,4,4-trimethyl-9-(trifluoromethyl)-4,5-dihydro-[1,2,4]triazolo[4,3-a]quinoxaline] fall in the same range of IC50 or EC50 (antagonist or agonist mode, not stated per compound): 100 to 1000 nM for the first, 100 to 1000 nM for the second.

Cc1nnc2n1-c1c(c(F)cc(-c3cccc4c3ccn4S(C)(=O)=O)c1C(F)F)NC2(C)C [Example 459, 9-(Difluoro-methyl)-6-fluoro-1,4,4-trimethyl-8-(1-methylsulfonyl-1H-indol-4-yl)-5H-[1,2,4]triazolo[4,3-a]quinoxaline] and Cc1nnc2n1-c1c(c(F)cc(-c3cc(F)cc4c3ccn4S(C)(=O)=O)c1C(F)F)NC2(C)C [Example 455, 9-(difluoromethyl)-6-fluoro-8-(6-fluoro-1-(methylsulfonyl)-1H-indol-4-yl)-1,4,4-trimethyl-4,5-dihydro-[1,2,4]triazolo[4,3-a]quinoxaline] cannot be ordered by IC50 or EC50 (antagonist or agonist mode, not stated per compound): less than 100 nM for the first, less than 100 nM for the second.

Cc1c[nH]c2c(-c3cc(F)c4c(c3C(F)F)-n3c(C)nnc3C(C)(C)N4)cc(F)cc12 [Example 462, 9-(Difluoro-methyl)-6-fluoro-8-(5-fluoro-3-methyl-1H-indol-7-yl)-1,4,4-trimethyl-5H-[1,2,4]triazolo[4,3-a]quinoxaline] and CNc1c(-c2cc(F)cc3c(C)c[nH]c23)cc(F)c2c1-n1c(C)nnc1C(C)(C)N2 [Example 487, [6-Fluoro-8-(5-fluoro-3-methyl-1H-indol-7-yl)-1,4,4-trimethyl-5H-[1,2,4]triazolo[4,3-a]quinoxalin-9-yl]-methyl-amine] cannot be ordered by IC50 or EC50 (antagonist or agonist mode, not stated per compound): less than 100 nM for the first, less than 100 nM for the second.

Cc1nnc2n1-c1c(C#N)c(-c3cccc4c3ccn4C3CC3)cc(F)c1NC2(C)C [Example 450, 8-(1-cyclopropyl-1H-indol-4-yl)-6-fluoro-1,4,4-trimethyl-4,5-dihydro-[1,2,4]triazolo[4,3-a]quinoxaline-9-carbonitrile] and Cc1c(-c2cccc3c2ccn3C)cc(F)c2c1-n1c(C)nnc1C(C)(C)N2 [Example 484, 6-Fluoro-1,4,4,9-tetramethyl-8-(1-methyl-1H-indol-4-yl)-5H-[1,2,4]triazolo[4,3-a]quinoxaline] cannot be ordered by IC50 or EC50 (antagonist or agonist mode, not stated per compound): less than 100 nM for the first, less than 100 nM for the second.

Compared with COc1c(-c2cc(F)cc3[nH]ccc23)cc(Cl)c2c1-n1c(C)nnc1C(C)(C)N2 [Example 488, 6-Chloro-8-(6-fluoro-1H-indol-4-yl)-9-methoxy-1,4,4-trimethyl-5H-[1,2,4]triazolo[4,3-a]quinoxaline], Cc1c(-c2cc(Cl)cc3[nH]ccc23)cc(F)c2c1-n1c(C)nnc1C(C)(C)N2 [Example 506, 8-(6-Chloro-1H-indol-4-yl)-6-fluoro-1,4,4,9-tetramethyl-5H-[1,2,4]triazolo[4,3-a]quinoxaline] is higher in IC50 or EC50 (antagonist or agonist mode, not stated per compound): less than 100 nM for the first, 100 to 1000 nM for the second.

First: Cc1nnc2n1-c1c(c(F)cc(-c3cc(F)cc4c3ccn4S(C)(=O)=O)c1C1CC1)NC2(C)C [Example 471, 9-Cyclopropyl-6-fluoro-8-(6-fluoro-1-methylsulfonyl-1H-indol-4-yl)-1,4,4-trimethyl-5H-[1,2,4]triazolo[4,3-a]quinoxaline]
Second: CCS(=O)(=O)n1ccc2c(-c3cc(F)c4c(c3NC)-n3c(C)nnc3C(C)(C)N4)cc(F)cc21 [Example 479, [8-[1-(Ethylsulfonyl)-6-fluoro-1H-indol-4-yl]-6-fluoro-1,4,4-trimethyl-5H-[1,2,4]triazolo[4,3-a]quinoxalin-9-yl]-methyl-amine]
The IC50 or EC50 (antagonist or agonist mode, not stated per compound) of the first is lower: less than 100 nM for the first, 100 to 1000 nM for the second.

CCc1c(-c2cc(F)cc3c2cnn3S(C)(=O)=O)cc(F)c2c1-n1c(C)nnc1C(C)(C)N2 [Example 53, 9-Ethyl-6-fluoro-8-(6-fluoro-1-methylsulfonyl-1H-indazol-4-yl)-1,4,4-trimethyl-5H-[1,2,4]triazolo[4,3-a]quinoxaline] and Cc1c(-c2cc(F)cc3c2cnn3S(C)(=O)=O)cc(F)c2c1-n1c(C)nnc1C(C)(C)N2 [Example 340, 6-Fluoro-8-(6-fluoro-1-methylsulfonyl-1H-indazol-4-yl)-1,4,4,9-tetramethyl-5H-[1,2,4]triazolo[4,3-a]quinoxaline] fall in the same range of IC50 or EC50 (antagonist or agonist mode, not stated per compound): 100 to 1000 nM for the first, 100 to 1000 nM for the second.

First: Cc1c(-c2cc(F)cc3c2cnn3S(C)(=O)=O)c(F)c(F)c2c1-n1c(C)nnc1C(C)(C)N2 [Example 452, 6,7-Difluoro-8-(6-fluoro-1-methylsulfonyl-1H-indazol-4-yl)-1,4,4,9-tetramethyl-5H-[1,2,4]triazolo[4,3-a]quinoxaline]
Second: COc1c(-c2cc(F)cc3c2cnn3S(C)(=O)=O)c(F)c(F)c2c1-n1c(C)nnc1C(C)(C)N2 [Example 501, 6,7-Difluoro-8-(6-fluoro-1-methylsulfonyl-1H-indazol-4-yl)-9-methoxy-1,4,4-trimethyl-5H-[1,2,4]triazolo[4,3-a]quinoxaline]
The IC50 or EC50 (antagonist or agonist mode, not stated per compound) of the first is lower: less than 100 nM for the first, 100 to 1000 nM for the second.

Cc1c(-c2cccc3c2ccn3S(=O)(=O)C2CC2)cc(F)c2c1-n1c(C)nnc1C(C)(C)N2 [Example 391, 8-[1-(Cyclopropylsulfonyl)-1H-indol-4-yl]-6-fluoro-1,4,4,9-tetramethyl-5H-[1,2,4]triazolo[4,3-a]quinoxaline] and Cc1c(-c2cccc3c2ccn3S(=O)(=O)CC2CC2)cc(F)c2c1-n1c(C)nnc1C(C)(C)N2 [Example 491, 8-[1-(Cyclopropyl-methylsulfonyl)-1H-indol-4-yl]-6-fluoro-1,4,4,9-tetramethyl-5H-[1,2,4]triazolo[4,3-a]quinoxaline] cannot be ordered by IC50 or EC50 (antagonist or agonist mode, not stated per compound): less than 100 nM for the first, less than 100 nM for the second.

Cc1c(-c2cc(C(F)(F)F)cc3[nH]ncc23)cc(F)c2c1-n1c(C)nnc1C(C)(C)N2 [Example 507, 6-Fluoro-1,4,4,9-tetramethyl-8-[6-(trifluoromethyl)-1H-indazol-4-yl]-5H-[1,2,4]triazolo[4,3-a]quinoxaline] and Cc1c(-c2ccc(F)c3[nH]ncc23)cc(F)c2c1-n1c(C)nnc1C(C)(C)N2 [Example 517, 6-Fluoro-8-(7-fluoro-1H-indazol-4-yl)-1,4,4,9-tetramethyl-5H-[1,2,4]triazolo[4,3-a]quinoxaline] fall in the same range of IC50 or EC50 (antagonist or agonist mode, not stated per compound): 100 to 1000 nM for the first, 100 to 1000 nM for the second.

First: COCCn1ccc2c(-c3cc(F)c4c(c3C)-n3c(C)nnc3C(C)(C)N4)cccc21 [Example 300, 6-Fluoro-8-[1-(2-methoxy-ethyl)-1H-indol-4-yl]-1,4,4,9-tetramethyl-5H-[1,2,4]triazolo[4,3-a]quinoxaline]
Second: CCS(=O)(=O)n1ccc2c(-c3cc(F)c4c(c3C(F)F)-n3c(C)nnc3C(C)(C)N4)cc(F)cc21 [Example 460, 9-(Difluoro-methyl)-8-[1-(ethylsulfonyl)-6-fluoro-1H-indol-4-yl]-6-fluoro-1,4,4-trimethyl-5H-[1,2,4]triazolo[4,3-a]quinoxaline]
The IC50 or EC50 (antagonist or agonist mode, not stated per compound) of the first is higher: 100 to 1000 nM for the first, less than 100 nM for the second.
